From ChEMBL document CHEMBL3638723, “Isoxazolo-pyridine derivatives” (2014)

Target: T1, Gamma-aminobutyric acid receptor subunit alpha-5 (Homo sapiens, UniProt P31644)
T1 sequence (P31644 whole entry): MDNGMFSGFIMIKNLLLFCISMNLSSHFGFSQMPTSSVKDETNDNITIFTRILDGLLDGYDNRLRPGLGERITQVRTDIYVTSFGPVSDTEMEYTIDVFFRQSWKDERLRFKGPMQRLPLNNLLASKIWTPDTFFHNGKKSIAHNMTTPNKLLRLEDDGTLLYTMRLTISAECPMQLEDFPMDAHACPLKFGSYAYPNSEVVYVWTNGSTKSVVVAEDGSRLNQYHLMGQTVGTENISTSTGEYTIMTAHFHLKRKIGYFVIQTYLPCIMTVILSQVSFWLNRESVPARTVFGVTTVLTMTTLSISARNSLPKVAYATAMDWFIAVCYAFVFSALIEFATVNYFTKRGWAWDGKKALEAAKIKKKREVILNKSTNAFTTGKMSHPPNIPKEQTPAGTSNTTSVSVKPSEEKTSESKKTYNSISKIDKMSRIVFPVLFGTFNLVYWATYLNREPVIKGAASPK
Test: Radioligand Binding Assay: Radioligand binding assays were carried out in a volume of […] (96-well plates) which contained […] of cell memebranes, [3H]flumazenil at a concentration of 1 nM for α1, α2, α3 subunits and 0.5 nM for α5 subunits and the test compound in the range of 10-10−3x10−6 M. Nonspecific binding was defined by 10−5 M diazepam and typically represented less than 5% of the total binding. Assays were incubated to equilibrium for 1 hour at 4 C. and harvested onto GF/C uni-filters (Packard) by filtration using a Packard harvester and washing with ice-cold wash buffer (50 mM Tris; pH 7.5). After drying, filter-retained radioactivity was detected by liquid scintillation counting.

Row | SMILES | Ki
1 | Cc1onc(-c2ccccc2)c1COc1ccc(C(=O)NC(C)C)cn1 | 0.0013 µM
2 | Cc1onc(-c2ccccc2)c1COc1ccc(C(=O)N2CCn3cnnc3C2)cn1 | 0.0299 µM
3 | Cc1onc(-c2ccccc2)c1COc1ccc(C(=O)N2CC3(COC3)C2)cn1 | 0.0151 µM
4 | Cc1onc(-c2ccc(Cl)cc2)c1COc1ccc(C(=O)N2CCOCC2)cn1 | 0.0054 µM
5 | Cc1onc(-c2ccccn2)c1COc1ccc(C(=O)N2CCOCC2)cn1 | 0.0146 µM
6 | Cc1onc(-c2ccc(Cl)cn2)c1COc1ccc(C(=O)N2CCSCC2)cn1 | 0.0004 µM
